What was measured:
predatory bugs = assay: Foliar spray trial on Bollgard II cotton, Norwood 2010-11 (Example 7): predatory bugs; format: in vivo, Hemiptera (Nabidae, Lygaeidae, Pentatomidae); details: fipronil 62.5 mL/ha; for number of predatory bugs per meter: 1st spray, BC 667/DAT 511 0.50 L/ha; for number of predatory bugs per metre: 2nd spray, BC 667/DAT 511 0.5 L/ha
Protocol: (§1) The trial was conducted on commercial Bollgard II® cotton crops at Norwood near Moree, NSW from 5 Dec. 2010 to 19 Feb. 2011. The cotton was at the early squaring stage, when it was attractive to green mirids (Khan et al. 2004).
(§2) The study evaluated the efficacy of the following treatments against green mirids, green vegetable bugs and predatory insects: • 1. 500 mL/ha BC 667 spore in oil (1×10^7 spores/ml); • 2. 500 mL/ha DAT 511 spore in oil (1×10^7 spores/ml); • 3. 62.5 mL/ha Fipronil (conventional insecticide); and • 4. Unsprayed (control).
(§3) The treatment plots were arranged in a randomized complete block design with four replicates per treatment. Each replicated plot measured 0.5 ha. Foliar application of each treatment was made on 18 Jan. 2011 using a ground spray rig fitted with flat fan nozzles to achieve a droplet size of 80 250 μm. The treatment was applied in the mornings when temperature was between 20° C. and 28° C. The timing of treatment was based on an economic threshold of 0.5 green mirids per metre, the IPM guideline and recommendation by CottonLogic.
(§4) Pre-treatment counts of green mirid adults and nymphs, predatory beetles, predatory bugs, predatory lacewings and spiders were made by visual inspection of whole cotton plants. Both adults and nymphs of the beneficial insects were counted. Plants were assessed in randomly selected one-metre lengths of row of each treatment replicate (i.e. four metres per treatment). In all, two spray applications of each treatment were made. The first spray was made on 18 Jan. 2011. Post-treatment counts of the first spray application were taken 3, 7 and 14 days after treatment (DAT) (first spray). A second spray application was done on 1 Feb. 2011 when green mirid adults plus nymphs reached the threshold of 0.5 per metre. Post-treatment counts of the second spray application were taken 3, 7, 14, 21 and 28 DAT. Data are expressed as numbers of individuals of that species counted per metre for each treatment.

spiders = assay: Foliar spray trial on Bollgard II cotton, Norwood 2010-11 (Example 7): spiders; format: in vivo, Lycosa spp., Oxyopes spp., Salticidae spp., Araneus spp.; details: fipronil 62.5 mL/ha; for number of spiders per meter: 1st spray, BC 667/DAT 511 0.50 L/ha; for number of spiders per metre: 2nd spray, BC 667/DAT 511 0.5 L/ha
Protocol: as §1, §2, §3, §4

predatory beetles = assay: Rate trial on conventional cotton, Norwood 2012 (Example 10): predatory beetles; format: in vivo, Coleoptera (Coccinellidae, Melyridae); details: 3 and 6 Mar. 2012; fipronil 62.5 mL/ha; P<0.05
Protocol: This trial was conducted on commercial conventional cotton crops on a farm at Norwood (29° 28'S, 149° 50′E) near Moree, NSW, from 28 Feb. to 21 Mar. 2012. The cotton used for the trial was at the early squaring stage, when it was attractive to green mirids (Khan et al. 2004).
The efficacy of the following treatments against green mirids and predatory insects were evaluated: • 1. 250 mL/ha DAT 511 spore in oil (1×10^7 spores/ml); • 2. 500 mL/ha DAT 511 spore in oil (1×10^7 spores/ml); • 3. 1 L/ha DAT 511 spore in oil (1×10^7 spores/ml); • 4. 62.5 mL/ha of Fipronil; and • 5. Unsprayed (negative control).
(§5) The treatment plots were arranged in a randomized complete block design with six replicates per treatment. Each replicated plot measured 40 m wide (40 rows) and 90 m long.
Foliar application of each treatment was made on 28 Feb. (for both green mirids and beneficial insects) and 13 Mar. […]
Pre-treatment counts of adult and nymph green mirids, predatory beetles, predatory bugs, predatory lacewings and spiders were made by visual inspection of whole cotton plants. Both adults and nymphs of beneficial insects were counted. Plants were assessed in randomly selected one-metre lengths of row of each treatment replicate (i.e. 6 m per treatment). […] Data are expressed as numbers of green mirid adults and nymphs counted per metre per treatment.

predatory lacewings = assay: Bollgard II cotton, Auscott-Togo 2012-13, Field 77 (Experiment 1): predatory lacewings; format: in vivo, Chrysopa spp., Micromus tasmaniae; details: 62.5 mL/ha
Protocol: Two separate trials (Experiment 1 in Field 77; Experiment 2 in Field 63) were conducted in Bollgard II cotton crops on a commercial cotton farm at Auscott-Togo near Narrabri, New South Wales from 11 Feb. to 5 Mar. 2013 (Field 77) and 19 Feb. to 6 Mar. 2013 (Field 63). The cotton used for each of the trials was at the late squaring to pod setting and maturation stages which was fairly attractive to green mirids.
In both trials, the efficacy of the following treatments against green mirids and predatory insects was evaluated: • 1. 250 mL/ha DAT 511 spore in oil (1×10^7 spores/ml); • 2. 500 mL/ha DAT 511 spore in oil (1×10^7 spores/ml); • 3. 1 L/ha DAT 511 spore in oil (1×10^7 spores/ml); • 4. 62.5 mL/ha of fipronil; and • 5. Unsprayed (negative control).
as §5
Foliar application of each treatment was made on 28 Feb. (for both green mirids and beneficial insects) and 13 Mar. 2012 (for beneficial insects alone) using a ground spray rig fitted with flat fan nozzles to achieve a droplet size of 200 μm. The treatment was applied during the mornings when temperatures were between 20° C. and 28° C. The timing of treatment was based on the IPM Guidelines and recommendations by CottonLogic to use an economic threshold of 0.5 green mirids per metre (Deutscher and Wilson 1999; Khan et al. 2004).
Pre-treatment counts of green mirid adults and nymphs, predatory beetles, predatory bugs, predatory lacewings and spiders were made by visual inspection of whole cotton plants. Both adults and nymphs of beneficial insects were counted. Plants were assessed in randomly selected one-metre lengths of row of each replicate (i.e. 6 m per treatment). Post-treatment counts were made 3, 7, 14 and 21 days after treatment. Data are expressed as numbers of green mirid adults and nymphs counted per metre for each treatment.

N#Cc1nn(-c2c(Cl)cc(C(F)(F)F)cc2Cl)c(N)c1[S+]([O-])C(F)(F)F (centres unmarked) [fipronil]
number of predatory bugs per meter (predatory bugs; 3 DAT): 0.33 ± 0.33 a per meter
number of predatory bugs per meter (predatory bugs; 7 DAT): 0.67 ± 0.33 a per meter
number of predatory bugs per meter (predatory bugs; 14 DAT): 1.33 ± 0.33 a per meter
number of predatory bugs per meter (predatory bugs; pre-spray counts 18 Jan. 2011): 0.67 ± 0.33 a per meter
number of predatory bugs per metre (predatory bugs; 3 DAT): 0.33 ± 0.33a per metre
number of predatory bugs per metre (predatory bugs; 7 DAT): 0.33 ± 0.33a per metre
number of predatory bugs per metre (predatory bugs; 14 DAT): 0.67 ± 0.33a per metre
number of predatory bugs per metre (predatory bugs; 21 DAT): 1.00 ± 0.58a per metre
number of predatory bugs per metre (predatory bugs; 28 DAT): 0.67 ± 0.33a per metre
number of predatory bugs per metre (predatory bugs; pre-spray counts 1 Feb. 2011): 1.33 ± 0.33a per metre
number of spiders per meter (spiders; 3 DAT): 3.33 ± 0.33 a per meter
number of spiders per meter (spiders; 7 DAT): 4.67 ± 2.03 b per meter
number of spiders per meter (spiders; 14 DAT): 9.67 ± 1.45 a per meter
number of spiders per meter (spiders; pre-spray counts 18 Jan. 2011): 9.33 ± 1.20 a per meter
number of spiders per metre (spiders; 3 DAT): 12.00 ± 1.16a per metre
number of spiders per metre (spiders; 7 DAT): 10.33 ± 2.67a per metre
number of spiders per metre (spiders; 14 DAT): 16.00 ± 0.58b per metre
number of spiders per metre (spiders; 21 DAT): 21.00 ± 3.22a per metre
number of spiders per metre (spiders; 28 DAT): 21.00 ± 3.00a per metre
number of spiders per metre (spiders; pre-spray counts 1 Feb. 2011): 9.67 ± 1.45a per metre
number of predatory beetles per metre versus unsprayed and DAT 511 treated plots (predatory beetles): significantly lower
No. predatory lacewings per meter (predatory lacewings; 3 DAT): 0.00 ± 0.00 a per meter
No. predatory lacewings per meter (predatory lacewings; 7 DAT): 0.00 ± 0.00 a per meter
No. predatory lacewings per meter (predatory lacewings; 14 DAT): 0.33 ± 0.33 a per meter
No. predatory lacewings per meter (predatory lacewings; 21 DAT): 0.33 ± 0.33 a per meter
No. predatory lacewings per meter (predatory lacewings; pre-spray counts): 0.00 ± 0.00 a per meter

— patent publication US10563272B2, “Compositions comprising Metarhizium fungi and use thereof as a pesticide” (Cotton Research and Development Corporation, priority 2015, dated 2020)
